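1) Cells in 96-well plates. 2) Compound, 48 h, 5 concentrations. 3) Linear interpolation between surrounding doses. 4) Unreached endpoint = highest concentration. GI50 marks 50% less growth. Definition used: TGI = concentration required for complete inhibition of growth.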
Legend:
Assay in all cases: inhibition of tumour cell growth, NCI panel, 48 h
[1] = test system: 786-0 renal
[2] = test system: HOP-62 NSCLC
[3] = test system: A498 renal
[4] = test system: HS 578T breast
[5] = test system: NCI-H226 lung
[6] = test system: M14 melanoma
[7] = test system: UACC-62 melanoma
[8] = test system: SK-MEL-28 melanoma
[9] = test system: LOX IMVI melanoma
[10] = test system: U251 CNS
[11] = test system: HCT-15 colon
[12] = test system: SR leukemia
[13] = test system: T-47D breast
[14] = test system: SF-268 CNS
[15] = test system: PC-3 prostate
[16] = test system: OVCAR-8 ovarian
[17] = test system: SF-539 CNS
[18] = test system: SK-MEL-2 melanoma
[19] = test system: MOLT-4 leukemia
[20] = test system: NCI/ADR-RES ovarian
[21] = test system: COLO 205 colon
[22] = test system: HCC-2998 colon
[23] = test system: TK-10 renal
[24] = test system: DU-145 prostate
[25] = test system: MDA-MB-435
[26] = test system: UACC-257 melanoma
[27] = test system: HL-60(TB) leukemia
[28] = test system: UO-31 renal
[29] = test system: OVCAR-5 ovarian
[30] = test system: MALME-3M melanoma
[31] = test system: SF-295 CNS
[32] = test system: RPMI-8226 leukemia
[33] = test system: OVCAR-4 ovarian
[34] = test system: K-562 leukemia
[35] = test system: CAKI-1 renal
[36] = test system: EKVX NSCLC
[37] = test system: BT-549 breast
[38] = test system: MCF7 breast
[39] = test system: HCT-116 colon
[40] = test system: OVCAR-3 ovarian
[41] = test system: NCI-H460 lung
[42] = test system: SNB-19 CNS
[43] = test system: SN12C renal
[44] = test system: NCI-H522 lung
[45] = test system: IGROV1 ovarian
[46] = test system: HT29 colon
[47] = test system: SK-OV-3 ovarian
[48] = test system: SK-MEL-5 melanoma
[49] = test system: SW-620 colon
[50] = test system: ACHN renal
[51] = test system: KM12 colon
[52] = test system: MDA-MB-231 breast
[53] = test system: RXF 393 renal
[54] = test system: HOP-92 NSCLC
[55] = test system: A549 NSCLC
[56] = test system: CCRF-CEM leukemia
[57] = test system: SNB-75 CNS

## CC[C@@H](CO)Nc1ccc2ncc(C#Cc3cncc(C(=O)Nc4ccc(CN5CCN(C)CC5)c(C(F)(F)F)c4)c3)n2n1
[1]
  GI50: 282 nM
  TGI: 986 nM
[2]
  GI50: 178 nM
  TGI: 909 nM
[3]
  GI50: 1060 nM
  TGI: 1920 nM
[4]
  GI50: 59.8 nM
  TGI: 451 nM
[5]
  GI50: 79.6 nM
  TGI: 635 nM
[6]
  GI50: 118 nM
  TGI: 360 nM
[7]
  GI50: 284 nM
  TGI: 1100 nM
[8]
  GI50: 278 nM
  TGI: 1100 nM
[9]
  GI50: 63.4 nM
  TGI: 258 nM
[10]
  GI50: 243 nM
  TGI: 805 nM
[11]
  GI50: 583 nM
  TGI: 1700 nM
[12]
  GI50: 34 nM
  TGI: 534 nM
[13]
  GI50: 582 nM
  TGI: 1590 nM
[14]
  GI50: 109 nM
  TGI: 554 nM
[15]
  GI50: 272 nM
  TGI: 1790 nM
[16]
  GI50: 169 nM
  TGI: 627 nM
[17]
  GI50: 32 nM
  TGI: 172 nM
[18]
  GI50: 115 nM
  TGI: 339 nM
[19]
  GI50: 43.8 nM
  TGI: 693 nM
[20]
  GI50: 5580 nM
  TGI: 18400 nM
[21]
  GI50: 89.2 nM
  TGI: 196 nM
[22]
  GI50: 238 nM
  TGI: 858 nM
[23]
  GI50: 343 nM
  TGI: 1180 nM
[24]
  GI50: 144 nM
  TGI: 543 nM
[25]
  GI50: 104 nM
  TGI: 634 nM
[26]
  GI50: 390 nM
  TGI: 1250 nM
[27]
  GI50: 104 nM
  TGI: 462 nM
[28]
  GI50: 917 nM
  TGI: 1930 nM
[29]
  GI50: 236 nM
  TGI: 1310 nM
[30]
  GI50: 125 nM
  TGI: 544 nM
[31]
  GI50: 413 nM
  TGI: 1390 nM
[32]
  GI50: 254 nM
  TGI: 1070 nM
[33]
  GI50: 145 nM
  TGI: 982 nM
[34]
  GI50: 5 nM
  TGI: 1640 nM
[35]
  GI50: 142 nM
  TGI: 458 nM
[36]
  GI50: 142 nM
  TGI: 1050 nM
[37]
  GI50: 614 nM
  TGI: 1350 nM
[38]
  GI50: 46.9 nM
  TGI: 409 nM
[39]
  GI50: 66.1 nM
  TGI: 355 nM
[40]
  GI50: 167 nM
  TGI: 954 nM
[41]
  GI50: 163 nM
  TGI: 541 nM
[42]
  GI50: 203 nM
  TGI: 1240 nM
[43]
  GI50: 45.2 nM
  TGI: 605 nM
[44]
  GI50: 59.2 nM
  TGI: 157 nM
[45]
  GI50: 77 nM
  TGI: 365 nM
[46]
  GI50: 157 nM
  TGI: 655 nM
[47]
  GI50: 622 nM
  TGI: 2150 nM
[48]
  GI50: 681 nM
  TGI: 1350 nM
[49]
  GI50: 81.3 nM
  TGI: 281 nM
[50]
  GI50: 363 nM
  TGI: 1180 nM
[51]
  GI50: 9.27 nM
  TGI: 793 nM
[52]
  GI50: 48.2 nM
  TGI: 500 nM
[53]
  GI50: 110 nM
  TGI: 333 nM
[54]
  GI50: 67 nM
  TGI: 261 nM
[55]
  GI50: 199 nM
  TGI: 768 nM
[56]
  GI50: 26.4 nM
  TGI: 1310 nM
[57]
  GI50: 20.6 nM
  TGI: 108 nM
